{"source": "paper PMC4224572", "about": "“Peptidomimetic inhibitors of N-myristoyltransferase from human malaria and leishmaniasis parasites” (Organic & Biomolecular Chemistry, 2014)", "key": {"[1]": {"design": "method as in earlier work", "details": "cited from earlier work"}, "[2]": {"biological_target": "T1, PvNMT (Plasmodium vivax, UniProt A5K1A2)", "T1 sequence (A5K1A2 1-410)": "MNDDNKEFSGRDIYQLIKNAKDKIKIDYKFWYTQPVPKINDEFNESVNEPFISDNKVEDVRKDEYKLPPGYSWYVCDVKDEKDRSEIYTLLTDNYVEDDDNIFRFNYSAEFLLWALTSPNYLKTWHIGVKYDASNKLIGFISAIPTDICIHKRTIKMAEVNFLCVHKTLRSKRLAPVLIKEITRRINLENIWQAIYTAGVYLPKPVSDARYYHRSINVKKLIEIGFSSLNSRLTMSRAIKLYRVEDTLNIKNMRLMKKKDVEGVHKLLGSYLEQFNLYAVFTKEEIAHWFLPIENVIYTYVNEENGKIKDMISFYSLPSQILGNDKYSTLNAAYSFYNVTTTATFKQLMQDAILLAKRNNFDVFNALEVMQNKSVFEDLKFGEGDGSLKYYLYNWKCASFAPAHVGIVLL", "test": "Fluorogenic NMT inhibition assay, PvNMT", "format": "biochemical", "details": "recombinant enzyme; mean of duplicate or triplicate experiments", "from_the_text": "(§1) 2-Methylimidazolyl analogues were synthesized building on the hypothesis that 2-methylimidazole (pK a ∼ 7.9)[18] is a reasonable mimetic for N-terminal Gly in the peptide substrate (pK a ∼ 8.0).[19] To cover a range of basicity, imidazolyl (pK a ∼ 7.0) and amine analogues (pK a ∼ 10.0) were also synthesized, each exploring a range of chain lengths (n) (Table 1). To probe versatility at the C-terminus, primary amides, carboxylic acids, 2-cyclohexylethyl and 2-(1-cyclohexenyl)ethyl amides were incorporated. Using a previously reported fluorogenic assay,[20] inhibitors were tested against the parasitic enzymes and HsNMT1 in order to explore their selectivity against a relevant host enzyme. […] Further reduction of the chain length (11 and 12, n = 8 and 7, respectively) led to loss of detectable activity against Plasmodium NMTs and significant loss of activity against LdNMT and HsNMT1."}, "[3]": {"biological_target": "T2, PfNMT (Plasmodium falciparum, UniProt Q9U419)", "T2 sequence (Q9U419 1-410)": "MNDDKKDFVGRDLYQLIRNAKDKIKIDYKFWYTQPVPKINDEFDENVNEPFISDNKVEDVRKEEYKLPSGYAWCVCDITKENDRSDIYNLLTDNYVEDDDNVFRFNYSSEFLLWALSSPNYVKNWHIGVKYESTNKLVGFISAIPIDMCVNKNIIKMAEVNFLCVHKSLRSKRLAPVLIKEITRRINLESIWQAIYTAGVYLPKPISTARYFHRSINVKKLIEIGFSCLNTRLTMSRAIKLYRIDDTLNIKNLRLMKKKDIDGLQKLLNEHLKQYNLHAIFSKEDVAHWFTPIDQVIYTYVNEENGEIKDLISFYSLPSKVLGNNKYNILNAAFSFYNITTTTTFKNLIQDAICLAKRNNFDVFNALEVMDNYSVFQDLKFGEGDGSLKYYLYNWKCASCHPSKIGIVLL", "test": "Fluorogenic NMT inhibition assay, PfNMT", "format": "biochemical", "details": "recombinant enzyme; mean of duplicate or triplicate experiments", "from_the_text": "as §1"}, "[4]": {"test_system": "LdNMT", "test": "Fluorogenic NMT inhibition assay, LdNMT", "format": "biochemical, L. donovani", "from_the_text": "as §1"}, "[5]": {"biological_target": "T3, HsNMT1 (Homo sapiens, UniProt P30419)", "T3 sequence (P30419 1-496)": "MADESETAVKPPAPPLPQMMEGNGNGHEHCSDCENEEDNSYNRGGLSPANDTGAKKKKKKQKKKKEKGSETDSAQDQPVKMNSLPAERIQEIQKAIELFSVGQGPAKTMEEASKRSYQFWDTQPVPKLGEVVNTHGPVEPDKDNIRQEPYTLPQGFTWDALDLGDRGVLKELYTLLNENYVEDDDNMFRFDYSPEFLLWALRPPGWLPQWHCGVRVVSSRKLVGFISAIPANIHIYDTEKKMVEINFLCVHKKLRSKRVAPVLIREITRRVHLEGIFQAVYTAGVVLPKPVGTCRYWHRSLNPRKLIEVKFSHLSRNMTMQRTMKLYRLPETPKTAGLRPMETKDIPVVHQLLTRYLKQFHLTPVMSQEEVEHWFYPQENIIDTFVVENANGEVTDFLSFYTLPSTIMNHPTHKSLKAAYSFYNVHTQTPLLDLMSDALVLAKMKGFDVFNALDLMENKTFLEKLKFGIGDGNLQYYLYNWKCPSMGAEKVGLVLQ", "test": "Fluorogenic NMT inhibition assay, HsNMT1", "format": "biochemical, H. sapiens", "details": "mean of duplicate or triplicate experiments", "from_the_text": "2-Methylimidazolyl analogues were synthesized building on the hypothesis that 2-methylimidazole (pK a ∼ 7.9)[18] is a reasonable mimetic for N-terminal Gly in the peptide substrate (pK a ∼ 8.0).[19] To cover a range of basicity, imidazolyl (pK a ∼ 7.0) and amine analogues (pK a ∼ 10.0) were also synthesized, each exploring a range of chain lengths (n) (Table 1). To probe versatility at the C-terminus, primary amides, carboxylic acids, 2-cyclohexylethyl and 2-(1-cyclohexenyl)ethyl amides were incorporated. Using a previously reported fluorogenic assay,[20] inhibitors were tested against the parasitic enzymes and HsNMT1 in order to explore their selectivity against a relevant host enzyme."}, "[6]": {"biological_target": "T1, PvNMT", "test": "Kinetic assay and Lineweaver-Burk plot, competitiveness of compound 10", "format": "biochemical", "protocol": "Unexpectedly, the electron maps indicated a mixture of ligand structures such that ∼20% of the electron density represents a N-myristoylated 10 product complex with the CoA by-product in LmNMT (Fig. 2D). This is the only structural evidence for a product complex in any N-myristoyltransferase, and captures and supports the proposed mechanism of action of NMT just prior to regeneration of the active enzyme. Kinetic experiments were performed to study 10 both as a potential substrate and as an NMT inhibitor. […] The N-myristoylation of 10 observed above therefore presumably occurs within the crystal where all reagents are present at high effective concentrations, and turnover is blocked by limited egress of products. […]\n3. Kinetic studies of Compound 10. […]\n1 / [Sub s tr ate] Rate / [Su b s tr ate]\nNo inhibitor 0.6 μM 1.2 μM 2.4 μM\nFigure S3: Kinetic assay and Lineweaver-Burk plot studying the competitiveness of\n(§2) [Substrate] (µM) [S b[Substrate] (µM) tt ]"}, "[7]": {"test_system": "Leishmania NMT", "test": "Substrate characteristics in Leishmania NMT", "format": "biochemical", "protocol": "Unexpectedly, the electron maps indicated a mixture of ligand structures such that ∼20% of the electron density represents a N-myristoylated 10 product complex with the CoA by-product in LmNMT (Fig. 2D). This is the only structural evidence for a product complex in any N-myristoyltransferase, and captures and supports the proposed mechanism of action of NMT just prior to regeneration of the active enzyme. Kinetic experiments were performed to study 10 both as a potential substrate and as an NMT inhibitor. […] The N-myristoylation of 10 observed above therefore presumably occurs within the crystal where all reagents are present at high effective concentrations, and turnover is blocked by limited egress of products.\nTo probe the degree to which 10 acts as a true peptidomimetic, we investigated the potential to switch from inhibitor to a peptidomimetic substrate. […] In native NMT substrates, N-terminal Gly is preferred to the exclusion of all other residues, with relatively non-sterically demanding residues such as alanine. […]\nas §2\nHs pp60src(2-9) Compound 10 Compound 27 Compound 28\nFigure S4: Substrate characteristics of H. sapiens p60src(2-16), compound 10 and modified\ninhibitors 27 and 28 in Leishmania NMT."}, "[8]": {"test_system": "CaNMT", "design": "method as in PMID 7783114", "details": "read-out: KM as CaNMT substrate; cited from earlier work"}}, "note": "Ends that are not written are not given here."}
{"molecule": "Cc1ncc[nH]1", "note": "[2-methylimidazole]", "values": [{"measurement": "pKa", "setting": "[1]", "result": "~7.9"}]}
{"molecule": "NCCCCCCCCCC(=O)N[C@@H](CO)C(=O)N[C@@H](CCCCN)C(=O)NCCC1CCCCC1", "note": "[Compound 10]", "values": [{"measurement": "IC50", "setting": "[2]", "result": "680 ± 80", "unit": "nM"}, {"measurement": "IC50", "setting": "[3]", "result": "24300 ± 3400", "unit": "nM"}, {"measurement": "IC50", "setting": "[4]; recombinant enzyme, mean of duplicate or triplicate experiments", "result": "24 ± 3", "unit": "nM"}, {"measurement": "potency against LdNMT, fold higher than 2 (1H-imidazol-1-yl)", "setting": "[4]; relative to compound 2", "result": "over 400 fold"}, {"measurement": "potency against LdNMT, fold higher than 6 (2-methyl-1H-imidazol-1-yl)", "setting": "[4]; relative to compound 6", "result": "> 20", "unit": "fold"}, {"measurement": "IC50", "setting": "[5]", "result": "60 ± 3", "unit": "nM"}, {"measurement": "Vmax of substrate in presence of inhibitor", "setting": "[6]; 0.6 μM compound 10", "result": "20701.0 ± 1047.4"}, {"measurement": "Vmax of substrate in presence of inhibitor", "setting": "[6]; 1.2 μM compound 10", "result": "19563.0 ± 1520.6"}, {"measurement": "Vmax of substrate in presence of inhibitor", "setting": "[6]; 2.4 μM compound 10", "result": "21120.3 ± 1651.4"}, {"measurement": "mode of inhibition", "setting": "[6]; kinetic studies, Fig. S3", "result": "peptide-competitive inhibitor"}, {"measurement": "KM as substrate", "setting": "[7]; Leishmania NMT", "result": "Not measurable"}, {"measurement": "Vmax as substrate", "setting": "[7]; Leishmania NMT", "result": "Not measurable"}, {"measurement": "substrate activity", "setting": "[7]; compound 10 tested up to 40 μM", "result": "no substrate characteristics were detected"}]}
{"molecule": "GLYASKLS-NH2 [CaNMT octapeptide substrate]", "values": [{"measurement": "Km", "setting": "[8]", "result": 0.6, "unit": "µM"}]}
